Consider one compound from paper PMC11600510 (Journal of Chemical Information and Modeling, 2024).

What all share (format): in vitro ADME
A short description of series [1]: Metabolic stability in human liver microsomes. The text has this: CKP-25 was studied for its metabolic stability. In particular, the metabolic stability of a compound can be interpreted using several approaches, as it can be ranked in terms of its intrinsic clearance (CLint) and in vitro t1/2 values or based on parent structure loss during metabolic reactions[96],[97] CLin describes the maximum activity of liver (microsomal proteins or hepatocytes) toward a compound not influenced by other physiological determinants, such as hepatic blood flow and drug binding within the blood matrix and in vitro t1/2 expresses the time for 50% disappearance of the compound. Parent structure loss was our option for metabolic stability data interpretation of CKP-25. Parent structure loss is classified as very slow (<5%), slow (5–19%), moderate (20–50%), fast (50–80%) or very fast (>80%). Such categories have been defined according to set criteria, namely, high metabolism (t1/2 value of <30 min), moderate metabolism (30 min < t1/2 value of <60 min) and low metabolism (t1/2 value of >60 min).[98]−[100]
Metabolic stability was evaluated using pooled human liver microsomes at a 0.5 mg/mL concentration. […] Each test-compound was assessed at a concentration of 1 μM. […] The depletion of test compounds was then profiled, and the residual percentage compared to time zero was determined. The readouts were recorded using a Lionheart FX system from Agilent BioTek (Winooski, VT, USA).
A general note: Liver microsomes are vesicles of endoplasmic reticulum, rich in cytochrome P450 enzymes.

Another series has as its target T1, CYP2C9 (Homo sapiens, UniProt P11712).
T1 construct: purchased Thermo Fisher Scientific; host or cells: Baculosomes
Kind of series: Isozyme-specific CYP450 inhibition. Particulars: recombinant human CYP2C9 with CYP450 reductase (Baculosomes), probe fluorescent substrate (not named). The protocol: (§1) For this, the activity of CYP1A2, CYP2A6, CYP2B6, CYP2C9, CYP2C19, CYP2D6, and CYP3A4 was assessed after the administration of CKP-25 at 1 μM to determine (a) the oxidative (CYP-mediated) metabolic stability profile in question and (b) the enzyme metabolizing isoforms responsible (the test system consists of recombinant human CYP450 and CYP450 reductase; cytochrome b5 may also be present). Herein, no concentration-dependent effects were reported. […] No product inhibition or mechanism-based inactivation of the CYP450 isoenzymes in question was obtained. Test-compounds with poor solubility can show artificially low CYP450 inhibition and thus, chemical entities with potential drug–drug interaction toxicities may be overlooked.
(§2) Human cytochrome P450 (CYP450) isoenzymes were expressed in Baculosomes obtained from Thermo Fisher Scientific (Waltham, MA, USA). Reagents were handled and prepared following the manufacturer’s guidelines. Compound CKP-25 was evaluated at a concentration of 1 μM according to our established standard operating procedures and protocols as described previously.[127],[128] The enzymatic activity of various CYP450 isoforms (CYP1A2, CYP2A6, CYP2B6, CYP2C9, CYP2C19, CYP2D6, and CYP3A4) was measured, considering the kinetic model for each isoform. The reactions were conducted in triplicate at 20 °C. NADP+ (10 mM in 100 mM potassium phosphate, pH 8.0) was converted to NADPH using a regeneration system containing glucose-6-phosphate (333 mM) and glucose-6-phosphate dehydrogenase (30 U/mL in 100 mM potassium phosphate, pH 8.0). Upon the addition of the fluorescent substrate, signal monitoring was performed immediately (within 2 min) using appropriate excitation and emission wavelengths, recorded by an Agilent BioTek Lionheart FX (Winooski, VT, USA). CYP450 inhibition (%) was calculated based on the reaction rates (fluorescence intensity changes per unit time). In total, n = 60 meaurements per minute were recorded over a 60 min period. [drawing 2] where X, the rate observed in the presence of a test-compound; A, the rate observed in the presence of negative (solvent, DMSO) control.

The target in a further series is T2, CYP3A4 (Homo sapiens, UniProt P08684).
T2 construct: purchased Thermo Fisher Scientific; host or cells: Baculosomes
T2 sequence (P08684 2-503 limits assumed): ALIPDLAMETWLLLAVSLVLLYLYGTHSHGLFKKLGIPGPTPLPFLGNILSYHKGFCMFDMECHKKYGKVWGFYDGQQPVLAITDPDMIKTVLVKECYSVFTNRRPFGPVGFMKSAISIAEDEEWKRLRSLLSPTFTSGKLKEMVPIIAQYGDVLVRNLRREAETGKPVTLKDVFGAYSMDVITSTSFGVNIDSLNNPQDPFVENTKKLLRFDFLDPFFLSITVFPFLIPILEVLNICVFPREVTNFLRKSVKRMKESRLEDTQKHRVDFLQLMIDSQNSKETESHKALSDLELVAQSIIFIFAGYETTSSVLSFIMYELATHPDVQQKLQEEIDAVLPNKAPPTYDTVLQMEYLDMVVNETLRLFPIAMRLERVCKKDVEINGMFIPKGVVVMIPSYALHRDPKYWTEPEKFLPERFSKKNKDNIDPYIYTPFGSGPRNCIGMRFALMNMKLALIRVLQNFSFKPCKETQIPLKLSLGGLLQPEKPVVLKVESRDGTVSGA
In words: Isozyme-specific CYP450 inhibition. Particulars: recombinant human CYP3A4 with CYP450 reductase (Baculosomes), probe fluorescent substrate (not named). As to the method:
as §1, §2

The target in the next series is T3, CYP2C19 (Homo sapiens, UniProt P33261).
T3 construct: purchased Thermo Fisher Scientific; host or cells: Baculosomes
T3 sequence (P33261 whole entry): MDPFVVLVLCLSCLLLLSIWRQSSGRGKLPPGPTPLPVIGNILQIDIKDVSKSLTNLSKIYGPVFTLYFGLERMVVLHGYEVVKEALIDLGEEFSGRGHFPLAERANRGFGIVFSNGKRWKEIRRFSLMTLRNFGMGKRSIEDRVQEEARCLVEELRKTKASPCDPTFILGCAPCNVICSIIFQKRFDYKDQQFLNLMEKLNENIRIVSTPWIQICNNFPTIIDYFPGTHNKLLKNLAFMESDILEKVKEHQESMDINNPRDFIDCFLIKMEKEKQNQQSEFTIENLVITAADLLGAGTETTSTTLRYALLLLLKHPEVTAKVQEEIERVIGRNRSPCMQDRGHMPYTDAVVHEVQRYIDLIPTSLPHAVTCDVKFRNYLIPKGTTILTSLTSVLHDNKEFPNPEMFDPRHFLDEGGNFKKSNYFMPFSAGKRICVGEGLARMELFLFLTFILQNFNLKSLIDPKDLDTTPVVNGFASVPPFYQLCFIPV
In words: Isozyme-specific CYP450 inhibition. Particulars: probe fluorescent substrate (not named). The protocol: as §1, §2

For the next series, the target named is T4, CYP1A2 (Homo sapiens, UniProt P05177).
T4 construct: purchased Thermo Fisher Scientific; host or cells: Baculosomes
T4 sequence (P05177 2-516 limits assumed): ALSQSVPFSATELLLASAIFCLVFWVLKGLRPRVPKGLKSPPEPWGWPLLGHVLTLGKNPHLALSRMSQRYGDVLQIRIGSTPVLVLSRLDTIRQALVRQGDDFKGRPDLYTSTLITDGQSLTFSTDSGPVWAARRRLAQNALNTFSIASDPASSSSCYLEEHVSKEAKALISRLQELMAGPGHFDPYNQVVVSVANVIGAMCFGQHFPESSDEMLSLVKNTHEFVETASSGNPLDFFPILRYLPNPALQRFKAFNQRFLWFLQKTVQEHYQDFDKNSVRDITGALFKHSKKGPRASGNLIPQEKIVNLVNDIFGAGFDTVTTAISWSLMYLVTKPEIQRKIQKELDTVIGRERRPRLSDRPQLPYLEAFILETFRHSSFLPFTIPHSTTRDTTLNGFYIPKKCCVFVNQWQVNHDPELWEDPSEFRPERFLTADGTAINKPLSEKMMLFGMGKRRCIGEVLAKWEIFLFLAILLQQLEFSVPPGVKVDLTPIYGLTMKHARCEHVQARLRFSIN
Kind of series: Isozyme-specific CYP450 inhibition. Particulars: recombinant human CYP1A2 with CYP450 reductase (Baculosomes), probe fluorescent substrate (not named). As to the method:
as §1, §2

In general, inhibition refers to the change of the read-out against control, counted positive when it falls.

T1 sequence (P11712 whole entry): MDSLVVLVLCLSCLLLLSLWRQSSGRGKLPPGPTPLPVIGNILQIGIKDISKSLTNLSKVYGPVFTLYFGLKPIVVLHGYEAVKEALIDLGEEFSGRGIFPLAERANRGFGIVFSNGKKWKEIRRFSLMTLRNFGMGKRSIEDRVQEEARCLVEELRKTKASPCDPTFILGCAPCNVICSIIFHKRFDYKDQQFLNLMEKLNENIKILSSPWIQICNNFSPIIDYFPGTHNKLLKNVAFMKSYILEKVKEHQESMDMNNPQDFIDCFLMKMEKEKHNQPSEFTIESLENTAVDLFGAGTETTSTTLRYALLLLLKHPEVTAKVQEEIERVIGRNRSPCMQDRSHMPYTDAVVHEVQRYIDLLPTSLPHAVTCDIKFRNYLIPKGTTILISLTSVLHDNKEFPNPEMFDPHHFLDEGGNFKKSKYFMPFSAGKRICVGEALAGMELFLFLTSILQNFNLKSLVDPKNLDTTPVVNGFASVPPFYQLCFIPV

On to `COc1cccc2c1ncn2Cc1ccc2ccccc2c1` [CKP-25, 4-Methoxy-1-(naphthalen-2-ylmethyl)-1H-benzo[d]imidazole], for which the “substrate depletion (in words)” value in series [1] is “slow substrate depletion”. Also, the inhibition at 60 min, 1 µM worked out at 11% at CYP2C9, 3% at CYP3A4, 20% at CYP2C19 and 0% on CYP1A2.
